Test results from paper PMC4941645, “Oxidative Stress Induced by Pt(IV) Pro-drugs Based on the Cisplatin Scaffold and Indole Carboxylic Acids in Axial Position” (Scientific Reports, 2016).

Assays:
[1] = tested on: BxPC3 pancreatic carcinoma cells; assay: MTT cytotoxicity test, BxPC3; format: cell-based, human; conditions: for IC50: BxPC3, 72 h, MTT, ± S.D.; for times more effective than cisplatin: BxPC3 cells
Method: (§1) The cytotoxic activity of the complexes and of the uncoordinated ligands was evaluated by the MTT test on a panel of human tumor cell lines containing examples of pancreatic (BxPC3), colorectal (HCT-15), breast (MCF-7), cervical (A431), and lung (A549) cancers as well as of melanoma (A375). For comparison purposes, the cytotoxicity of cisplatin was evaluated under the same experimental conditions.
(§2) Cisplatin was dissolved in 0.9% NaCl solution.
(§3) Human breast (MCF-7), colon (HCT-15), lung (A549) and pancreatic (BxPC3) carcinoma cell lines together with melanoma (A375) cells were obtained from American Type Culture Collection (ATCC, Rockville, MD). The human ovarian cancer cell line 2008 and its cisplatin resistant variant, C13*, were kindly provided by Prof. G. Marverti (Department of Biomedical Science of Modena University, Italy). Human cervical carcinoma (A431) cells were kindly provided by Prof. F. Zunino (Division of Experimental Oncology B, Istituto Nazionale dei Tumori, Milan, Italy). Cell lines were maintained in the logarithmic phase at 37 °C in a 5% carbon dioxide atmosphere using the following culture media containing 10% fetal calf serum (Euroclone, Milan, Italy), antibiotics (50 units/mL penicillin and 50 μg/mL streptomycin) and 2 mM L-glutamine: (i) RPMI-1640 medium (Euroclone) for 2008, C13*, MCF-7, HCT-15, A431 and BxPC3 cells, (ii) F-12 HAM’S (Sigma Chemical Co.) for A549 cells, iii) DMEM (Sigma Chemical Co.) for A375 cells.
(§4) The growth inhibitory effect toward tumor cells was evaluated by means of the MTT assay. Briefly, (3–8) × 10^3 cells/well, dependent upon the growth characteristics of the cell line, were seeded in 96-well microplates in growth medium (100 μL). After 24 h, the medium was removed and replaced with fresh medium containing the compound to be studied at the appropriate concentration. Triplicate cultures were established for each treatment. After 24, 48, or 72 h, each well was treated with 10 μL of a 5 mg/mL MTT saline solution and, after 5 h of incubation, 100 μL of a sodium dodecylsulfate (SDS) solution in 0.01 M HCl was added. After an overnight incubation, cell growth inhibition was detected by measuring the absorbance of each well at 570 nm using a Bio-Rad 680 microplate reader. The mean absorbance for each drug dose was expressed as a percentage of the control, untreated well absorbance and plotted vs drug concentration. The IC50 values, the drug concentrations that decrease the mean absorbance at 570 nm to 50% of that of untreated control wells, were calculated from the dose–response curves with the four-parameter logistic model (4PL). The final value is the mean ± S.D. of at least three independent experiments performed in triplicate.

[2] = tested on: C13* cisplatin-resistant ovarian cancer cells; assay: MTT cytotoxicity test, cisplatin-resistant C13*; format: cell-based, human; conditions: for IC50: C13* cisplatin-resistant, 72 h, MTT, ± S.D.; for RF (resistance factor): IC50 resistant (C13*) / parent line (2008)
Method: The cytotoxic properties of the complexes were also evaluated in a pair of tumor cell lines suitably selected for their sensitivity and resistance to cisplatin (adenocarcinoma cells 2008/C13^*). Cross-resistance profiles were evaluated by means of the resistance factor (RF), defined as the ratio between IC50 values calculated for the resistant cells and those obtained with the sensitive ones (Table 2). The phenomenon of cisplatin resistance is multifactorial in nature.
as §2, §3, §4

[3] = tested on: A431 cervical carcinoma cells; assay: MTT cytotoxicity test, A431; format: cell-based, human; conditions: A431, 72 h, ± S.D.
Method: as §1, §2, §3, §4

[4] = Log P octanol/water, shake flask method with ICP-MS; format: physicochemical; conditions: n-octanol / 0.9% NaCl water, Pt by ICP-MS
Method: Partition coefficients (logP values) for octanol/water partition were determined in order to examine whether a correlation exists between lipophilicity and accumulation into cells. The log P values obtained (Table 3) give the trend in lipophilicity as mono indole acid complex < succinate complex < acetate complex < bis indole acid complex < benzoate complex for both the IAA and the IPA series.
The logP values of the Pt(IV) compounds were determined using the shake flask method. The respective Pt(IV) complex was dissolved in 0.9% NaCl (w/v) ultrapure water (presaturated with n-octanol). The solutions were sonicated and filtered to remove undissolved Pt(IV) compounds. The initial Pt concentrations were determined by ICP-MS. Subsequently, the Pt(IV) solutions were added to an equal volume of n-octanol (presaturated with 0.9% NaCl (w/v) ultrapure water). The heterogeneous mixtures were shaken vigorously for 30 min before centrifuging at 4000 rpm for 30 min to achieve phase separation. The final Pt concentration in the aqueous phase was determined again by ICP-MS. The logarithm of the ratio of Pt concentrations in the organic and aqueous phases was calculated to determine the logP values. All experiments were done in duplicate.

[5] = tested on: 2008 ovarian cancer cells; assay: MTT cytotoxicity test, cisplatin-sensitive 2008; format: cell-based, human; conditions: 2008 cisplatin-sensitive, 72 h, ± S.D.
Method: The cytotoxic properties of the complexes were also evaluated in a pair of tumor cell lines suitably selected for their sensitivity and resistance to cisplatin (adenocarcinoma cells 2008/C13^*). Cross-resistance profiles were evaluated by means of the resistance factor (RF), defined as the ratio between IC50 values calculated for the resistant cells and those obtained with the sensitive ones (Table 2). The phenomenon of cisplatin resistance is multifactorial in nature. Nevertheless, the main molecular mechanisms involved in drug resistance in C13* cancer cells have largely been identified. Indeed, in this cell line resistance is correlated to high cellular glutathione and thioredoxin reductase levels, reduced cellular drug uptake and enhanced repair of DNA damage. […] The RF values calculated for all derivatives were six- to nine-fold lower than that of cisplatin, clearly indicating the absence of cross-resistance.
as §2
Triplicate cultures were established for each treatment.

| SMILES | IC50 [1] [nM] | IC50 [2] [µM] | RF (resistance factor) [2] | IC50 [3] [µM] | Log P (octanol/water) [4] | IC50 [5] [µM] | times more effective than cisplatin [1] |
| --- | --- | --- | --- | --- | --- | --- | --- |
| CC(=O)[O][Pt]([NH2])([NH2])([Cl])([Cl])[O]C(=O)Cc1c[nH]c2ccccc12 [Complex 5A] | 44400 ± 6190 | 46.6 ± 3.41 | 1.1 | 3.07 ± 0.31 | −0.130 ± 0.05 | 41.2 ± 0.75 | – |
| [NH2][Pt]([NH2])([OH])([Cl])([Cl])[O]C(=O)CCc1c[nH]c2ccccc12 [Complex 1P, cis,cis,trans-[Pt(NH3)2Cl2(IPA)(OH)]] | 2260 ± 990 | 1.14 ± 0.5 | 0.8 | 1.62 ± 0.34 | −0.110 ± 0.05 | 1.45 ± 0.37 | four times |
| [NH2][Pt]([NH2])([OH])([Cl])([Cl])[O]C(=O)Cc1c[nH]c2ccccc12 [Complex 1A] | 2640 ± 970 | 2.51 ± 1.5 | 0.9 | 2.1 ± 1.04 | −0.220 ± 0.04 | 2.89 ± 1.22 | four times |
| [NH2][Pt]([NH2])([Cl])([Cl])([O]C(=O)Cc1c[nH]c2ccccc12)[O]C(=O)c1ccccc1 [Complex 3A] | 2560 ± 1070 | 6.52 ± 1.96 | 0.7 | 6.31 ± 0.94 | −0.037 ± 0.04 | 9.97 ± 3.18 | – |
| [NH2][Pt]([NH2])([Cl])([Cl])([O]C(=O)CCC(=O)O)[O]C(=O)Cc1c[nH]c2ccccc12 [Complex 4A] | > 50000 | > 50 | – | 3.94 ± 0.57 | −0.190 ± 0.06 | > 50 | – |
